Laboratory results published in PubChem BioAssay AID1963966 (Molecular Pharmacology Branch, DTP, NCI, 2024).

Tested on: 935938-334-R-J1-PDC spheroids with HUVEC/MSC, viability
Test: Anticancer human tumor 935938-334-R-J1-PDC patient-derived small intestine adenocarcinoma cell line growth inhibition [PI3K]
Details: for viability, T/C: stronger effect = lower value
Method in brief: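 Stroma-containing spheroids: tumor line, pooled-donor HUVEC, hMSC. Treatments: targeted agents with PI3K inhibitors. Dosing: clinically relevant, half-log spacing, 10 microM ceiling without known Cmax. Read-out: cell viability.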

[1] = curve of first compound, second compound 0.00316 µM
[2] = curve of first compound, second compound 0.01 µM
[3] = curve of first compound, second compound 0.0316 µM
[4] = curve of first compound, second compound 0.1 µM
[5] = curve of first compound, second compound 0.316 µM
[6] = curve of first compound, second compound 1 µM
[7] = second compound 0.0316 µM, first compound 0.0316 µM
[8] = second compound 0.0316 µM, first compound 0.1 µM
[9] = second compound 0.0316 µM, first compound 0.316 µM
[10] = second compound 0.0316 µM, first compound 1 µM
[11] = second compound 0.0316 µM, first compound 3.16 µM
[12] = second compound 0.0316 µM, first compound 10 µM
[13] = second compound 0.1 µM, first compound 0.0316 µM
[14] = second compound 0.1 µM, first compound 0.1 µM
[15] = second compound 0.1 µM, first compound 0.316 µM
[16] = second compound 0.1 µM, first compound 1 µM
[17] = second compound 0.1 µM, first compound 3.16 µM
[18] = second compound 0.1 µM, first compound 10 µM
[19] = second compound 0.316 µM, first compound 0.0316 µM
[20] = second compound 0.316 µM, first compound 0.1 µM
[21] = second compound 0.316 µM, first compound 0.316 µM
[22] = second compound 0.316 µM, first compound 1 µM
[23] = second compound 0.316 µM, first compound 3.16 µM
[24] = second compound 0.316 µM, first compound 10 µM
[25] = second compound 1 µM, first compound 0.0316 µM
[26] = second compound 1 µM, first compound 0.1 µM
[27] = second compound 1 µM, first compound 0.316 µM
[28] = second compound 1 µM, first compound 1 µM
[29] = second compound 1 µM, first compound 3.16 µM
[30] = second compound 1 µM, first compound 10 µM
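Further: compound exposure lasted seven days before viability was read.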
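Wherever viability, T/C is given: percent of vehicle DMSO treated spheroid viability so 100% = untreated.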

## Cn1cnc2c(F)c(Nc3ccc(Br)cc3Cl)c(C(=O)NOCCO)cc21 + COc1c(OCCCN2CCOCC2)ccc2c3n(c(=NC(=O)c4cnc(N)nc4)nc12)CCN3
[1]
  IC50: 60.9 nM
[2]
  IC50: 56.6 nM
[3]
  IC50: 40.3 nM
[4]
  IC50: < 9.49 nM
[5]
  IC50: < 9.49 nM
[6]
  IC50: < 9.49 nM
Second compound 0.00316 µM, first compound 0.00949 µM
  viability, T/C: 70.9%
Second compound 0.00316 µM, first compound 0.03 µM
  viability, T/C: 55.8%
Second compound 0.00316 µM, first compound 0.0949 µM
  viability, T/C: 49.6%
Second compound 0.00316 µM, first compound 0.3 µM
  viability, T/C: 30.8%
Second compound 0.00316 µM, first compound 0.949 µM
  viability, T/C: 30.9%
Second compound 0.00316 µM, first compound 3 µM
  viability, T/C: 23.4%
Second compound 0.01 µM, first compound 0.00949 µM
  viability, T/C: 76.8%
Second compound 0.01 µM, first compound 0.03 µM
  viability, T/C: 63.6%
Second compound 0.01 µM, first compound 0.0949 µM
  viability, T/C: 36.4%
Second compound 0.01 µM, first compound 0.3 µM
  viability, T/C: 32.6%
Second compound 0.01 µM, first compound 0.949 µM
  viability, T/C: 22.6%
Second compound 0.01 µM, first compound 3 µM
  viability, T/C: 18.4%
Second compound 0.0316 µM, first compound 0.00949 µM
  viability, T/C: 64.5%
Second compound 0.0316 µM, first compound 0.03 µM
  viability, T/C: 51.7%
Second compound 0.0316 µM, first compound 0.0949 µM
  viability, T/C: 42.4%
Second compound 0.0316 µM, first compound 0.3 µM
  viability, T/C: 27%
Second compound 0.0316 µM, first compound 0.949 µM
  viability, T/C: 22.2%
Second compound 0.0316 µM, first compound 3 µM
  viability, T/C: 20.3%
Second compound 0.1 µM, first compound 0.00949 µM
  viability, T/C: 31.4%
Second compound 0.1 µM, first compound 0.03 µM
  viability, T/C: 29.9%
Second compound 0.1 µM, first compound 0.0949 µM
  viability, T/C: 20.9%
Second compound 0.1 µM, first compound 0.3 µM
  viability, T/C: 16.2%
Second compound 0.1 µM, first compound 0.949 µM
  viability, T/C: 17.3%
Second compound 0.1 µM, first compound 3 µM
  viability, T/C: 14.1%
Second compound 0.316 µM, first compound 0.00949 µM
  viability, T/C: 26.8%
Second compound 0.316 µM, first compound 0.03 µM
  viability, T/C: 21.4%
Second compound 0.316 µM, first compound 0.0949 µM
  viability, T/C: 19.4%
Second compound 0.316 µM, first compound 0.3 µM
  viability, T/C: 17.7%
Second compound 0.316 µM, first compound 0.949 µM
  viability, T/C: 18.9%
Second compound 0.316 µM, first compound 3 µM
  viability, T/C: 15%
Second compound 1 µM, first compound 0.00949 µM
  viability, T/C: 29%
Second compound 1 µM, first compound 0.03 µM
  viability, T/C: 24.4%
Second compound 1 µM, first compound 0.0949 µM
  viability, T/C: 21.4%
Second compound 1 µM, first compound 0.3 µM
  viability, T/C: 21.3%
Second compound 1 µM, first compound 0.949 µM
  viability, T/C: 17.9%
Second compound 1 µM, first compound 3 µM
  viability, T/C: 14%

## Cn1nccc1Nc1nccc(-c2ccn(C(CO)c3ccc(Cl)c(F)c3)c(=O)c2)n1 (centres undefined) + Cc1nc(NC(=O)N2CCCC2C(N)=O)sc1-c1ccnc(C(C)(C)C(F)(F)F)c1
[3]
  IC50: 805 nM
[4]
  IC50: 973 nM
[5]
  IC50: 315 nM
[6]
  IC50: 211 nM
Curve of first compound, second compound 3.16 µM
  IC50: 46.8 nM
Curve of first compound, second compound 10 µM
  IC50: < 31.6 nM
[7]
  viability, T/C: 92.1%
[8]
  viability, T/C: 80.5%
[9]
  viability, T/C: 61%
[10]
  viability, T/C: 48.5%
[11]
  viability, T/C: 36.2%
[12]
  viability, T/C: 31.6%
[13]
  viability, T/C: 100%
[14]
  viability, T/C: 73.5%
[15]
  viability, T/C: 62%
[16]
  viability, T/C: 53.4%
[17]
  viability, T/C: 38.6%
[18]
  viability, T/C: 25.1%
[19]
  viability, T/C: 94.1%
[20]
  viability, T/C: 71%
[21]
  viability, T/C: 48.2%
[22]
  viability, T/C: 39.3%
[23]
  viability, T/C: 25%
[24]
  viability, T/C: 25.6%
[25]
  viability, T/C: 62.2%
[26]
  viability, T/C: 75.7%
[27]
  viability, T/C: 39.7%
[28]
  viability, T/C: 26%
[29]
  viability, T/C: 25.8%
[30]
  viability, T/C: 19.2%
Second compound 3.16 µM, first compound 0.0316 µM
  viability, T/C: 50.6%
Second compound 3.16 µM, first compound 0.1 µM
  viability, T/C: 51.3%
Second compound 3.16 µM, first compound 0.316 µM
  viability, T/C: 33.1%
Second compound 3.16 µM, first compound 1 µM
  viability, T/C: 37.4%
Second compound 3.16 µM, first compound 3.16 µM
  viability, T/C: 20.8%
Second compound 3.16 µM, first compound 10 µM
  viability, T/C: 18.7%
Second compound 10 µM, first compound 0.0316 µM
  viability, T/C: 43.9%
Second compound 10 µM, first compound 0.1 µM
  viability, T/C: 48%
Second compound 10 µM, first compound 0.316 µM
  viability, T/C: 28.6%
Second compound 10 µM, first compound 1 µM
  viability, T/C: 22.2%
Second compound 10 µM, first compound 3.16 µM
  viability, T/C: 20.8%
Second compound 10 µM, first compound 10 µM
  viability, T/C: 19.9%

## CCN1CCN(Cc2ccc(Nc3ncc(F)c(-c4cc(F)c5nc(C)n(C(C)C)c5c4)n3)nc2)CC1
Compound 0.01 µM
  viability, T/C: 89.4% [middle of 4 runs]
Compound 0.316 µM
  viability, T/C: 49.4% [middle of 4 runs]
Curve of compound
  IC50: 269 nM [middle of 4 runs]

## Cn1ncc(Cl)c1-c1cc(C(=O)NC(CN)Cc2cccc(F)c2)sc1Cl (centres undefined) + CC(Nc1ccc2c(c1)OCCn1cc(N3C(=O)OCC3C(F)F)nc1-2)C(N)=O
[1]
  IC50: > 10000 nM
[2]
  IC50: > 10000 nM
[3]
  IC50: > 10000 nM
[4]
  IC50: 761 nM
[5]
  IC50: 261 nM
[6]
  IC50: < 31.6 nM
Second compound 0.00316 µM, first compound 0.0316 µM
  viability, T/C: 107%
Second compound 0.00316 µM, first compound 0.1 µM
  viability, T/C: 69%
Second compound 0.00316 µM, first compound 0.316 µM
  viability, T/C: 60.8%
Second compound 0.00316 µM, first compound 1 µM
  viability, T/C: 57.9%
Second compound 0.00316 µM, first compound 3.16 µM
  viability, T/C: 56.5%
Second compound 0.00316 µM, first compound 10 µM
  viability, T/C: 116%
Second compound 0.01 µM, first compound 0.0316 µM
  viability, T/C: 104%
Second compound 0.01 µM, first compound 0.1 µM
  viability, T/C: 79.4%
Second compound 0.01 µM, first compound 0.316 µM
  viability, T/C: 53%
Second compound 0.01 µM, first compound 1 µM
  viability, T/C: 72.8%
Second compound 0.01 µM, first compound 3.16 µM
  viability, T/C: 40.9%
Second compound 0.01 µM, first compound 10 µM
  viability, T/C: 99.8%
[7]
  viability, T/C: 102%
[8]
  viability, T/C: 73.2%
[9]
  viability, T/C: 56.7%
[10]
  viability, T/C: 49.2%
[11]
  viability, T/C: 35.9%
[12]
  viability, T/C: 86%
[13]
  viability, T/C: 80.6%
[14]
  viability, T/C: 74.7%
[15]
  viability, T/C: 55.5%
[16]
  viability, T/C: 39.1%
[17]
  viability, T/C: 32.5%
[18]
  viability, T/C: 72.8%
[19]
  viability, T/C: 70.9%
[20]
  viability, T/C: 65.5%
[21]
  viability, T/C: 47.1%
[22]
  viability, T/C: 41%
[23]
  viability, T/C: 28.1%
[24]
  viability, T/C: 55.7%
[25]
  viability, T/C: 56.7%
[26]
  viability, T/C: 51.1%
[27]
  viability, T/C: 43.3%
[28]
  viability, T/C: 31.4%
[29]
  viability, T/C: 39%
[30]
  viability, T/C: 72.4%
